Source: patent publication US8546343B2, “Aminoglycoside antibiotics targeting bacterial 16S ribosomal RNA” (Eidgenoessische Technische Hochschule Zurich, priority 2007, dated 2013)
In brackets after ≈: the same amount, converted by molar mass.

How the values were obtained:
[1] = test system: AG008 E. coli BM13 (ANT2″); experiment: Standard MIC assay, AG008; format: cell-based, Escherichia coli; conditions: for Minimal inhibitory concentrations AG008: E. coli BM13 (ANT2″)
Procedure: (§1) Selected compounds of the present invention were tested for antibiotic susceptibility using clinical isolates of Staphylococci, Enterococci and Escherichia coli as well as strains carrying defined resistance determinants and compared to well known antibiotics of the state of the art. Drug susceptibility was determined in standard MIC assays, i.e. by determination of the minimal drug concentration required to inhibit bacterial growth in vitro.

[2] = test system: AG007 E. coli BM13 (AAC3); experiment: Standard MIC assay, AG007; format: cell-based, Escherichia coli; conditions: for Minimal inhibitory concentrations AG007: E. coli BM13 (AAC3)
Procedure: as §1

[3] = test system: M. smegmatis ΔrrnB (bacterial ribosomes); experiment: MIC, recombinant M. smegmatis with bacterial (wild-type) ribosomes; format: cell-based, Mycobacterium smegmatis; conditions: 72 h at 37° C.
Method in brief: (§2)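 M. smegmatis single-rRNA-operon strain carrying the indicated 16S rRNA decoding-site alleles, introduced into the chromosomal operon and confirmed by sequencing. Colony-purified cultures were grown in LB with 0.05% Tween 80 and started at OD600 0.025. MIC was read in microtiter format against twofold drug dilutions.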

[4] = test system: AG006 E. coli BM13; experiment: Standard MIC assay, AG006; format: cell-based, Escherichia coli
Procedure: as §1

[5] = test system: M. smegmatis ΔrrnB 1491A (16S rRNA position 1491 A, eukaryotic cytosolic ribosomes); experiment: MIC, recombinant M. smegmatis with mutant ribosomes 1491A; format: cell-based, Mycobacterium smegmatis; conditions: M. smegmatis ΔrrnB 1491A mutant ribosomes; 72 h at 37° C.
Method in brief: as §2

[6] = test system: AG019 E. faecalis JH2-2 (APH2″ AAC6′); experiment: Standard MIC assay, AG019; format: cell-based, Enterococcus faecalis; conditions: for Minimal inhibitory concentrations AG019: E. faecalis JH2-2 (APH2″ AAC6′)
Procedure: as §1

[7] = test system: AG017 E. faecalis JH2-2; experiment: Standard MIC assay, AG017; format: cell-based, Enterococcus faecalis
Procedure: as §1

[8] = test system: AG002 E. coli clinical isolate; experiment: Standard MIC assay, AG002; format: cell-based, Escherichia coli
Procedure: as §1

[9] = test system: M. smegmatis ΔrrnB 1408G (16S rRNA position 1408 G, eukaryotic cytosolic ribosomes); experiment: MIC, recombinant M. smegmatis with mutant ribosomes 1408G; format: cell-based, Mycobacterium smegmatis; conditions: M. smegmatis ΔrrnB 1408G mutant ribosomes; 72 h at 37° C.
Method in brief: as §2

[10] = test system: M. smegmatis ΔrrnB 1491C (16S rRNA position 1491 C, eukaryotic mitochondrial ribosome); experiment: MIC, recombinant M. smegmatis with mutant ribosomes 1491C; format: cell-based, Mycobacterium smegmatis; conditions: M. smegmatis ΔrrnB 1491C mutant ribosomes; 72 h at 37° C.
Method in brief: as §2

[11] = test system: AG001 E. coli clinical isolate; experiment: Standard MIC assay, AG001; format: cell-based, Escherichia coli
Procedure: as §1

[12] = test system: AG011 Staph. aureus clinical isolate; experiment: Standard MIC assay, AG011; format: cell-based, Staphylococcus aureus
Procedure: as §1

[13] = test system: AG013 Staph. epi. clinical isolate; experiment: Standard MIC assay, AG013; format: cell-based, Staphylococcus epidermidis
Procedure: as §1

[14] = test system: AG015 S. aureus BM3002 (ANT4′); experiment: Standard MIC assay, AG015; format: cell-based, Staphylococcus aureus; conditions: for Minimal inhibitory concentrations AG015: S. aureus BM3002 (ANT4′)
Procedure: as §1

[15] = test system: AG004 E. coli clinical isolate; experiment: Standard MIC assay, AG004; format: cell-based, Escherichia coli
Procedure: as §1

[16] = test system: AG014 Staph. epi. clinical isolate; experiment: Standard MIC assay, AG014; format: cell-based, Staphylococcus epidermidis
Procedure: as §1

[17] = test system: AG003 E. coli clinical isolate; experiment: Standard MIC assay, AG003; format: cell-based, Escherichia coli
Procedure: as §1

[18] = test system: AG016 S. aureus BM3002; experiment: Standard MIC assay, AG016; format: cell-based, Staphylococcus aureus
Procedure: as §1

[19] = test system: AG009 E. coli BM13 AAC(6′)-1B; experiment: Standard MIC assay, AG009; format: cell-based, Escherichia coli; conditions: for Minimal inhibitory concentrations AG009: E. coli BM13 AAC(6′)-1B
Procedure: as §1

SMILES: NC[C@@H]1O[C@H](O[C@H]2[C@@H](O)[C@H](O[C@@H]3[C@@H](O)[C@H](N)C[C@H](N)[C@H]3O[C@H]3O[C@@H]4CO[C@@H](CCc5ccccc5)O[C@H]4[C@H](O)[C@H]3N)O[C@@H]2CO)[C@H](N)[C@@H](O)[C@@H]1O [Compound 5.25, 4′,6′-O-(3-Phenyl)-propylideneparomomycin]
- Minimal inhibitory concentrations AG008 [1]: 32 mg/L (≈ 43.7 µM)
- Minimal inhibitory concentrations AG007 [2]: 16 to 32 mg/L
- minimal inhibitory concentrations ΔrrnB [3]: 1 mg/L
- Minimal inhibitory concentrations AG006 [4]: 16 to 32 mg/L
- minimal inhibitory concentrations ΔrrnB 1491A [5]: ≧512 μg/ml
- Minimal inhibitory concentrations AG019 [6]: 32 mg/L (≈ 43.7 µM)
- Minimal inhibitory concentrations AG017 [7]: 8 mg/L (≈ 10.9 µM)
- Minimal inhibitory concentrations AG002 [8]: 32 to 64 mg/L
- minimal inhibitory concentrations ΔrrnB 1408G [9]: 512 mg/L
- minimal inhibitory concentrations ΔrrnB 1491C [10]: ≧512 μg/ml
- Minimal inhibitory concentrations AG001 [11]: 32 to 64 mg/L
- Minimal inhibitory concentrations AG011 [12]: 4 mg/L (≈ 5.47 µM)
- Minimal inhibitory concentrations AG013 [13]: 4 to 8 mg/L
- Minimal inhibitory concentrations AG015 [14]: 8 to 16 mg/L
- Minimal inhibitory concentrations AG004 [15]: 32 mg/L (≈ 43.7 µM)
- Minimal inhibitory concentrations AG014 [16]: 4 mg/L (≈ 5.47 µM)
- Minimal inhibitory concentrations AG003 [17]: 32 mg/L (≈ 43.7 µM)
- Minimal inhibitory concentrations AG016 [18]: 8 mg/L (≈ 10.9 µM)
- Minimal inhibitory concentrations AG009 [19]: 64 to 128 mg/L

SMILES: NC[C@@H]1O[C@H](O[C@H]2[C@@H](O)[C@H](O[C@@H]3[C@@H](O)[C@H](N)C[C@H](N)[C@H]3O[C@H]3O[C@@H]4COC(C=Cc5ccccc5)O[C@H]4[C@H](O)[C@H]3N)O[C@@H]2CO)[C@H](N)[C@@H](O)[C@@H]1O (stereo partly shown) [Compound 5.26, 4′,6′-O-(3-Phenyl)-propenylideneparomomycin]
- Minimal inhibitory concentrations AG008 [1]: 32 mg/L (≈ 43.8 µM)
- Minimal inhibitory concentrations AG007 [2]: 32 mg/L (≈ 43.8 µM)
- minimal inhibitory concentrations ΔrrnB [3]: 2 to 4 mg/L
- Minimal inhibitory concentrations AG006 [4]: 32 mg/L (≈ 43.8 µM)
- minimal inhibitory concentrations ΔrrnB 1491A [5]: ≧512 μg/ml
- Minimal inhibitory concentrations AG019 [6]: 64 to 128 mg/L
- Minimal inhibitory concentrations AG017 [7]: 16 to 32 mg/L
- Minimal inhibitory concentrations AG002 [8]: 64 mg/L (≈ 87.7 µM)
- minimal inhibitory concentrations ΔrrnB 1408G [9]: ≧512 μg/ml
- minimal inhibitory concentrations ΔrrnB 1491C [10]: ≧512 μg/ml
- Minimal inhibitory concentrations AG001 [11]: 32 to 64 mg/L
- Minimal inhibitory concentrations AG011 [12]: 4 mg/L (≈ 5.48 µM)
- Minimal inhibitory concentrations AG013 [13]: 4 to 8 mg/L
- Minimal inhibitory concentrations AG015 [14]: 16 to 32 mg/L
- Minimal inhibitory concentrations AG004 [15]: 32 mg/L (≈ 43.8 µM)
- Minimal inhibitory concentrations AG014 [16]: 4 mg/L (≈ 5.48 µM)
- Minimal inhibitory concentrations AG003 [17]: 32 mg/L (≈ 43.8 µM)
- Minimal inhibitory concentrations AG016 [18]: 8 mg/L (≈ 11 µM)
- Minimal inhibitory concentrations AG009 [19]: 128 mg/L (≈ 175 µM)

SMILES: NCC1OC(OC2C(CO)OC(OC3C(O)C(N)CC(N)C3OC3OC(CO)C(OCc4ccccc4)C(O)C3N)C2O)C(N)C(O)C1O (stereo not shown) [Compound 11, 4′-O-Benzylparomomycin]
- MIC ([1]; Escherichia coli, read-out: Minimal inhibitory concentrations AG008): 64 to 128 mg/L (≈ 90.7 to 181 µM)
- MIC ([2]; Escherichia coli, read-out: Minimal inhibitory concentrations AG007): 32 mg/L (≈ 45.3 µM)
- minimal inhibitory concentrations ΔrrnB [3]: 4 mg/L
- MIC ([4]; Escherichia coli, read-out: Minimal inhibitory concentrations AG006): 32 mg/L (≈ 45.3 µM)
- minimal inhibitory concentrations ΔrrnB 1491A [5]: ≧512 μg/ml
- MIC ([6]; Enterococcus faecalis, read-out: Minimal inhibitory concentrations AG019): > 256 mg/L
- MIC ([7]; Enterococcus faecalis, read-out: Minimal inhibitory concentrations AG017): 32 to 64 mg/L (≈ 45.3 to 90.7 µM)
- MIC ([8]; Escherichia coli, read-out: Minimal inhibitory concentrations AG002): 32 to 64 mg/L (≈ 45.3 to 90.7 µM)
- minimal inhibitory concentrations ΔrrnB 1408G [9]: >512 mg/L
- minimal inhibitory concentrations ΔrrnB 1491C [10]: >512 mg/L
- MIC ([11]; Escherichia coli, read-out: Minimal inhibitory concentrations AG001): 64 mg/L (≈ 90.7 µM)
- MIC ([12]; Staphylococcus aureus, read-out: Minimal inhibitory concentrations AG011): 8 mg/L (≈ 11.3 µM)
- MIC ([13]; Staphylococcus epidermidis, read-out: Minimal inhibitory concentrations AG013): 16 mg/L (≈ 22.7 µM)
- MIC ([14]; Staphylococcus aureus, read-out: Minimal inhibitory concentrations AG015): 32 mg/L (≈ 45.3 µM)
- MIC ([15]; Escherichia coli, read-out: Minimal inhibitory concentrations AG004): 64 mg/L (≈ 90.7 µM)
- MIC ([16]; Staphylococcus epidermidis, read-out: Minimal inhibitory concentrations AG014): 8 mg/L (≈ 11.3 µM)
- MIC ([17]; Escherichia coli, read-out: Minimal inhibitory concentrations AG003): 32 to 64 mg/L (≈ 45.3 to 90.7 µM)
- MIC ([18]; Staphylococcus aureus, read-out: Minimal inhibitory concentrations AG016): 16 to 32 mg/L (≈ 22.7 to 45.3 µM)
- MIC ([19]; Escherichia coli, read-out: Minimal inhibitory concentrations AG009): 64 to 128 mg/L (≈ 90.7 to 181 µM)

SMILES: NC[C@@H]1O[C@H](O[C@H]2[C@@H](O)[C@H](O[C@@H]3[C@@H](O)[C@H](N)C[C@H](N)[C@H]3O[C@H]3O[C@H](CO)[C@@H](OCc4ccc(Cl)cc4)[C@H](O)[C@H]3N)O[C@@H]2CO)[C@H](N)[C@@H](O)[C@@H]1O [Compound 19a, 4′-p-chlorobenzylparomomycin]
- Minimal inhibitory concentrations AG008 [1]: 8 to 16 mg/L
- Minimal inhibitory concentrations AG007 [2]: 8 to 16 mg/L
- minimal inhibitory concentrations ΔrrnB [3]: 2 mg/L
- Minimal inhibitory concentrations AG006 [4]: 8 to 16 mg/L
- minimal inhibitory concentrations ΔrrnB 1491A [5]: ≧512 μg/ml
- Minimal inhibitory concentrations AG019 [6]: 32 to 64 mg/L
- Minimal inhibitory concentrations AG017 [7]: 8 to 16 mg/L
- Minimal inhibitory concentrations AG002 [8]: 16 mg/L (≈ 21.6 µM)
- minimal inhibitory concentrations ΔrrnB 1408G [9]: ≧512 μg/ml
- minimal inhibitory concentrations ΔrrnB 1491C [10]: >512 mg/L
- Minimal inhibitory concentrations AG001 [11]: 8 to 16 mg/L
- Minimal inhibitory concentrations AG011 [12]: 2 mg/L (≈ 2.7 µM)
- Minimal inhibitory concentrations AG013 [13]: 4 mg/L (≈ 5.4 µM)
- Minimal inhibitory concentrations AG015 [14]: 8 to 16 mg/L
- Minimal inhibitory concentrations AG004 [15]: 8 to 16 mg/L
- Minimal inhibitory concentrations AG014 [16]: 2 mg/L (≈ 2.7 µM)
- Minimal inhibitory concentrations AG003 [17]: 8 to 16 mg/L
- Minimal inhibitory concentrations AG016 [18]: 4 mg/L (≈ 5.4 µM)
- Minimal inhibitory concentrations AG009 [19]: 32 mg/L (≈ 43.2 µM)
